Measured values from US20130337028A1, “BIOMIMETIC PEPTIDES FOR BONE AUGMENTATION” (NANOVIS, INC., priority 2010, published 2013).

Legend:
[1] = test system: Human fetal osteoblasts (hFOB, CRL-11372, ATCC); experiment: Cell adhesion testing; format: cell-based; conditions: 4 h culture, seeded at 3500 cells/cm^2
Experimental: (§1) Human fetal osteoblasts (hFOB, CRL-11372, ATCC) of population numbers 7-11 were cultured in Dulbecco's Modified Eagle's Medium (DMEM, GIBCO) supplemented with 10% fetal bovine serum (FBS, Hyclone) and 1% penicillin/streptomycin (P/S, Hyclone) under standard cell culture conditions (that is, a humidified, 5% CO2/95% air environment at 37° C.). Osteoblasts were seeded onto the petri-dish at a density of 3500 cells/cm^2 and were cultured under standard cell culture conditions for 4 h with peptide concentration discussed. After the prescribed time period, non-adherent cells were removed by sequential phosphate buffered saline (PBS) washings. The remaining cells were fixed using 10% normal buffered formaldehyde (Fisher Scientific) for 10 min and 0.1% Triton X-100 (Sigma-Aldrich) for 5 min. Adherent cells were counted in five random fields per substrate under a Zeiss Axiovert 200M fluorescence microscope. Experiments were run in triplicate and repeated three separate times for each substrate.

[2] = test system: Human fetal osteoblasts (hFOB, CRL-11372, ATCC); experiment: Osteoblast proliferation testing (osteoblast density); format: cell-based; conditions: after day 3, seeded at 2500 cells/cm^2, FIG. 2
Experimental: as §1
For osteoblast proliferation studies, similar to the above procedures, osteoblasts were seeded on petri dish at 2500 cells/cm^2 with peptides and cultured for 1, 3 days. After the prescribed time periods, adherent cells were fixed, stained and counted under the fluorescence microscope as described above. All cellular experiments were run in triplicate and repeated at least three times for each substrate.

osteoblasts [3] = experiment: Cell function tests, overall osteoblast function; format: cell-based, human; conditions: summary of total protein, ALP and calcium tests
Experimental: (§2) Total intracellular protein content of osteoblasts is extremely important since it is the indication of healthy growth and normal cell response. Thus, the amount of protein produced by cells were measured up to 3 weeks of culture after providing complete media. In order to release the intracellular protein, the adhered cells on the substrates were lysed in DI water using a standard four cycle freeze-thaw method. The resulting lysate solution was then used for analysis. The total protein content were determined by a BCA (bicinchoninic acid) assay kit (Pierce) and the absorbance of the solution were measured using a spectrophotometer at a wavelength of 570 nm. The absorbance was then converted to protein content using an albumin standard curve to determine the amount of intracellular protein.
(§3) The resulting lysate solution obtained by a four cycle freeze-thaw method was used to measure the ALP activity using a colorimetric assay (Teco). The absorbance of the solution was measured using a spectrophotometer at a wavelength of 590 nm. The absorbance was converted to concentration using ALP standard and all the data were normalized with total protein content to account for changes in number of cells present on surface.
The calcium content was measured up to 3 weeks in culture using a colorimetric assay (Teco) (see FIG. 4). […]

[4] = test system: critical sized bone defect; experiment: Critical sized bone defect model, proximal tibia and distal femur; format: in vivo, Sinclair minipigs; conditions: with nPLGA and HRN based scaffolds, 4 and 8 weeks, FIG. 6
Experimental: A critical sized bone defect model was used in the proximal tibia and distal femur of 12 Sinclair minipigs (Sinclair Research, MO). Time points to be evaluated are 4 weeks and 8 weeks. Four surgical defects (2 tibia and 2 femur) were created on day 0 in all pigs in one limb and on day 28 in all pigs in the opposite limb. Treatments were applied according to predetermined treatment allocations. MRI evaluations of defects were performed at 4 weeks (all limbs) and 8 weeks (initial defects created on day 0). Following euthanasia, defects were evaluated using microCT and histology to measure bone volume fraction within the defects and with mechanical testing to evaluate compressive stiffness and integration with surrounding bone.
Minipigs were given pre-operative analgesic and antimicrobial drugs immediately prior to anesthesia. Pigs were anesthetized in the Clinical Discovery Laboratory (CDL) using standard swine protocols. One stifle region was aseptically prepared and draped routinely for surgery of the proximal tibia and distal femur. Defects were created in epiphyseal/metaphyseal cancellous bone using an 8 mm drill to a depth of 20 mm. The procedure was repeated in the opposite hind limb at 4 weeks. (Confirmation of the critical defect size in minipigs is to be determined.)
Minipigs were housed in the animal holding facility room 1094 and monitored post-operatively. […]

osteoblasts [5] = experiment: Total intracellular protein content of osteoblasts (BCA assay); format: cell-based, human; conditions: after 7 and 14 days, FIG. 5
Experimental: as §2

osteoblasts [6] = experiment: Alkaline phosphatase activity of osteoblasts (colorimetric assay); format: cell-based, human; conditions: up to 3 weeks, normalized with total protein content, FIG. 3
Experimental: as §3

osteoblasts [7] = experiment: Calcium content / calcium deposition by osteoblasts (colorimetric assay); format: cell-based, human; conditions: after 21 days, normalized with total protein content
Experimental: The calcium content was measured up to 3 weeks in culture using a colorimetric assay (Teco) (see FIG. 4). After all the lysate was aspirated, the surfaces were soaked overnight in 6 N HCl solution to dissolve the deposited calcium. The calcium solution was then reacted with assay reagents and the absorbance of the solution was measured photometrically at 570 nm. The absorbance was then converted to concentration using calcium standards and all the data were normalized with total protein content to account for changes in the number of cells present on surface.

alkaline phosphatase activity (osteoblasts [6])	Substance	osteoblast adhesion to substrates [1]	osteoblast density / attachment on peptide coated surfaces [2]	osteoblast function (overall) (osteoblasts [3])	new bone growth (histology) [4]	total proteins synthesized by osteoblasts (osteoblasts [5])	calcium deposition (osteoblasts [7])
	KRSR (Ac-KRSR-NH2) [reference compound]	proved to be crucial for maximal osteoblast adhesion to substrates	increased osteoblast attachment compared to other peptides studied	showed increased osteoblast function	showed new bone growth		
superiority	KRSRSNVILKKYRN (Ac-KRSRSNVILKKYRN-NH2)		increased osteoblast attachment compared to other peptides studied	showed increased osteoblast function	showed new bone growth	showed the highest value compared to other peptides and the control	showed highest value compared to other materials studied
	SNVILKKYRN		increased osteoblast attachment compared to other peptides studied				
